US4092420A, “Novel soft N-chloroamino alcohol derivatives exhibiting antibacterial activity” (INTERx Research Corporation, priority 1977, dated 1978)

Columns and labels:
C. albicans = experiment: Minimal inhibitory concentration (MIC), Example V; type: cell-based; settings: Candida albicans
Source text: MINIMAL INHIBITORY CONCENTRATION OF 2-AMINO-2-METHYL-1-PROPYL […]
(§1) THE ANTIBACTERIAL SCREEN - EXAMPLE V

P. aeruginosa = experiment: Minimal inhibitory concentration (MIC), Example V; type: cell-based; settings: Pseudomonas aeruginosa
Procedure: as §1
(§2) THE ANTIBACTERIAL SCREEN - EXAMPLES W - Z (Autotiter IV)
(§3) (a) Compounds. All compounds to be screened are weighed (approx. 10 mg) on the day preceding the test date. Each compound is solubilized on the day of assay in appropriate solvent and diluted automatically in the Autotiter IV with distilled water (buffer can be employed here also).
(§4) Bacteria: Staphylococcus aureas Smith (or 209), Escherichia coli AB 1932-1, 1100/B22 and Vogel, Streptococcus pyogenes C203 Salmonella typhimurium 14028, Bacillus subtilis 6051-1, Klebsiella pneumoniae 10031, Pseudomonas aeruginosa 9027, Bordetella bronchiseptica 4617 and Staphylococcus epidermidis 12228.
(§5) (c) Inocula. Prior to utilization in the Autotiter IV, all bacteria are cultured for 18-20 hr. (37° C) in tryptose phosphate broth (TP), except, S. pyogenes C203, which is cultured in Brain Heart Infusion broth plus 10% normal horse serum. Immediately prior to testing, each culture is adjusted to an optical density of 0.10 (650 nm), employing a Bausch & Lomb Spectronic 20, and diluted subsequently into double strength medium to approximately 2 × 10^5 viable organisms per ml.
(§6) 1. An automated injector system dispenses 0.05 ml of diluent (sterile H2 O or buffer) to all cups of the autotiter trays from rows 2 through 7.
(§7) 2. The loops (for sequential dilutions of the compounds are moistened by immersion into 70% ethyl alcohol. After removal of excess alcohol by blotting, the loops are moved to the first row of cups in the autotray containing 0.10 ml of the compound to be diluted and tested (usually, this initial concentration is 500 to 1000 mcg/ml, but can be varied upward or downward). The loops are lowered and sequentially transfer the diluted solutions of the compound through row 7.
(§8) Immediately after each dilution is made, each cup is automatically inoculated with 0.05 ml of the appropriate test organism. This inoculation derives from a second injector system containing the organism in double-strength medium. The total operation consists of the automatic dilution of a single compound in each of 8 rows of the Autotiter try.
(§9) After these operations, we reverse the tray and a second compound is diluted over the other one-half of the tray and inoculated, subsequently, with 8 organisms. Thus, for each Autotiter Tray, two compounds are screened against 8 different organisms at dilutions ranging from 1:2 to 1:128.
(§10) (e) Incubation. The inoculated Autotiter trays are incubated at 37° C for 18 - 20 hr. At the end of this period, each tray is examined for the presence or absence of growth (turbidity). The lowest concentration of the compound inhibiting growth is recorded as the minimal inhibitory concentration (MIC).

S. aureus = experiment: Minimal inhibitory concentration (MIC), Example V; type: cell-based; settings: Staphylococcus aureus
Procedure: as §1, §2, §3, §4, §5, §6, §7, §8, §9, §10

S. pyogenes = experiment: Minimal inhibitory concentration (MIC), Example V; type: cell-based; settings: Streptococcus pyogenes
[1] = Solubility in 30% methanol: 0.1 M sodium dihydrogen phosphate, pH 7.0; type: physicochemical; settings: 0.1 m nah2po4, pH 7, organic solvent or mixture, Concentration (footnote: Solubility in 30% methanol: 0.1 M sodium dihydrogen phosphate, pH 7.0)
A. niger = experiment: Minimal inhibitory concentration (MIC), Example V; type: cell-based; settings: Aspergillus niger
Source text: (§11) MINIMAL INHIBITORY CONCENTRATION OF 2-AMINO-2-METHYL-1-PROPYL
(§12) ^a Minimal inhibitory concentration expressed in parts per million
(§13) sequence inhibited the test organism at the higher concentrations.
as §1

T. mentagrophytes = experiment: Minimal inhibitory concentration (MIC), Example V; type: cell-based; settings: Trichophyton mentagrophytes
Source text: as §11, §12, §13, §1

E. coli = experiment: Minimal inhibitory concentration (MIC), Example V; type: cell-based; settings: Escherichia coli
Source text: as §11, §12, §13, §1

K. pneumoniae = experiment: Minimal inhibitory concentration (MIC), Example V; type: cell-based; settings: Klebsiella pneumoniae
Procedure: as §11, §12, §13, §1
Klebsiella pneumoniae ATCC# 10031
as §2, §3, §4, §5, §6, §7, §8, §9, §10

Compound | MIC (C. albicans) [µg/mL] | MIC (P. aeruginosa) [µg/mL] | MIC (S. aureus) [µg/mL] | MIC (S. pyogenes) [µg/mL] | solubility [1] [µg/mL] | MIC (A. niger) [µg/mL] | MIC (T. mentagrophytes) [µg/mL] | MIC (E. coli) [µg/mL] | MIC (K. pneumoniae) [µg/mL]
CCCC(=O)OCC(C)(C)N.Cl [III b, 2-Amino-2-methyl-1-propyl butyrate hydrochloride] | > 62.5 | > 62.5 | > 62.5 | > 62.5 | 1070 | > 62.5 | > 62.5 | > 62.5 | > 62.5
CCCCCC(=O)OCC(C)(C)N.Cl [III d, 2-Amino-2-methyl-1-propyl hexanoate hydrochloride] | > 62.5 | 62.5 | > 62.5 | 62.5 | 1040 | > 62.5 | > 62.5 | > 62.5 | > 62.5
CC(=O)OCC(C)(C)N(Cl)Cl [IV a, 2-N,N-Dichloroamino-2-methyl-1-propyl acetate] | > 62.5 | 62.5 | > 62.5 | 62.5 |  | > 62.5 | 62.5 | > 62.5 | > 62.5
CCCC(=O)OCC(C)(C)NCl [IV b, 2-N-Chloroamino-2-methyl-1-propyl butyrate] | > 62.5 | > 62.5 | > 62.5 | > 62.5 |  | > 62.5 | > 62.5 | > 62.5 | > 62.5
CCCCCC(=O)OCC(C)(C)NCl [IV d, 2-N-Chloroamino-2-methyl-1-propyl hexanoate] | > 62.5 | > 62.5 | > 62.5 | > 62.5 |  | > 62.5 | > 62.5 | > 62.5 | > 62.5
CCCCCCCC(=O)OCC(C)(C)NCl [IV e, 2-N-Chloroamino-2-methyl-1-propyl octanoate] | > 62.5 | > 62.5 | > 62.5 | > 62.5 |  | > 62.5 | > 62.5 | > 62.5 | > 62.5
